Drawing on PubChem BioAssay AID248 (DTP/NCI, 2004), this text covers T/C for four compounds.

Values joined by “and” are separate entries in the source; they are usually repeats but may differ in a detail not shown here. Identical values can stand only once. Inconclusive results and toxic doses are left out.

The test system of this experiment is L1210 leukemia ip in BDF1 mice, survival T/C. Kind of experiment: NCI In Vivo Anticancer Drug Screen. Data for tumor model L1210 Leukemia (intraperitoneal) in B6D2F1 (BDF1) mice. To be noted: endpoint: mean survival time, higher = longer survival. Summed up:
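Transplantable tumor model; survival measured in treated vs vehicle control mice. Value = treated/control.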

As for `O=C(Nc1ccc(C2=NCCN2)cc1)c1ccc(C(=O)Nc2ccc(C3=NCCN3)cc2)c(NC(=O)c2ccc(C(=O)Nc3cc(C(=O)Nc4ccc(C5=NCCN5)cc4)ccc3C(=O)Nc3ccc(C4=NCCN4)cc3)cc2)c1`, the T/C runs as follows: (dose: 2.5 mg/kg/injection, schedule: Q01DX Z (ip), vehicle: methylcellulose (MC)) 120 % of control; (dose: 3.1 mg/kg/injection, schedule: Q01DX Z (ip), vehicle: carboxymethylcellulose (CMC)) 104 % of control; (dose: 6.2 mg/kg/injection, schedule: Q01DX Z (ip), vehicle: carboxymethylcellulose (CMC)) 107 % of control; (dose: 6.25 mg/kg/injection, schedule: Q#A X Z (ip), vehicle: carboxymethylcellulose (CMC)) 108 % of control; (dose: 10.0 mg/kg/injection, schedule: Q01DX Z (ip), vehicle: methylcellulose (MC)) 157 % of control; (dose: 12.5 mg/kg/injection, schedule: Q01DX Z (ip), vehicle: carboxymethylcellulose (CMC)) 119 % of control. Moreover, the T/C is, setting by setting: (dose: 12.5 mg/kg/injection, schedule: Q01DX Z (sc), vehicle: carboxymethylcellulose (CMC)) 98 % of control; (dose: 12.5 mg/kg/injection, schedule: Q#A X Z (ip), vehicle: carboxymethylcellulose (CMC)) 192 % of control; (dose: 22.0 mg/kg/injection, schedule: Q01DX015 (ip), vehicle: carboxymethylcellulose (CMC)) 116 % of control; (dose: 25.0 mg/kg/injection, schedule: Q01DX004 (im), vehicle: olive oil, sesame oil, peanut oil) 97 % of control; (dose: 25.0 mg/kg/injection, schedule: Q01DX Z (ip), vehicle: carboxymethylcellulose (CMC)) 175 % of control; (dose: 25.0 mg/kg/injection, schedule: Q01DX Z (sc), vehicle: carboxymethylcellulose (CMC)) 122 % of control. Further, the T/C by setting is: (dose: 25.0 mg/kg/injection, schedule: Q#A X Z (ip), vehicle: carboxymethylcellulose (CMC)) 289 % of control; (dose: 33.0 mg/kg/injection, schedule: Q01DX015 (ip), vehicle: carboxymethylcellulose (CMC)) 106 % of control; (dose: 50.0 mg/kg/injection, schedule: Q01DX004 (im), vehicle: olive oil, sesame oil, peanut oil) 95 % of control; (dose: 50.0 mg/kg/injection, schedule: Q01DX015 (ip), vehicle: carboxymethylcellulose (CMC)) 110 % of control; (dose: 50.0 mg/kg/injection, schedule: Q01DX Z (ip), vehicle: carboxymethylcellulose (CMC)) 302 % of control; (dose: 50.0 mg/kg/injection, schedule: Q01DX Z (oral), vehicle: carboxymethylcellulose (CMC)) 95 % of control. Moreover, the T/C (dose: 50.0 mg/kg/injection, schedule: Q01DX Z (sc), vehicle: carboxymethylcellulose (CMC)) is 201 % of control; the T/C (dose: 50.0 mg/kg/injection, schedule: Q#A X Z (ip), vehicle: carboxymethylcellulose (CMC)) is 194 % of control; the T/C (dose: 60.0 mg/kg/injection, schedule: Q01DX Z (ip), vehicle: methylcellulose (MC)) was 158 % of control and 359 % of control; the T/C (dose: 62.5 mg/kg/injection, schedule: Q## X010 (oral), vehicle: saline) was 98 % of control; the T/C (dose: 75.0 mg/kg/injection, schedule: Q03DX Z (ip), vehicle: carboxymethylcellulose (CMC)) is 206 % of control; the T/C (dose: 100.0 mg/kg/injection, schedule: Q01DX004 (im), vehicle: olive oil, sesame oil, peanut oil) was 95 % of control. Also, the T/C is, setting by setting: (dose: 100.0 mg/kg/injection, schedule: Q01DX Z (ip), vehicle: carboxymethylcellulose (CMC)) 195 % of control; (dose: 100.0 mg/kg/injection, schedule: Q01DX Z (oral), vehicle: carboxymethylcellulose (CMC)) 93 % of control; (dose: 100.0 mg/kg/injection, schedule: Q01DX Z (sc), vehicle: carboxymethylcellulose (CMC)) 208 % of control; (dose: 112.5 mg/kg/injection, schedule: Q01DX015 (ip), vehicle: carboxymethylcellulose (CMC)) 169 % of control; (dose: 120.0 mg/kg/injection, schedule: Q01DX Z (ip), vehicle: methylcellulose (MC)) 314 % of control; (dose: 150.0 mg/kg/injection, schedule: Q03DX Z (ip), vehicle: carboxymethylcellulose (CMC)) 284 % of control. Further, the T/C is 293 % of control (dose: 175.0 mg/kg/injection, schedule: Q07DX Z (ip), vehicle: carboxymethylcellulose (CMC)); 97 % of control (dose: 192.0 mg/kg/injection, schedule: Q01DX001 (ip), vehicle: carboxymethylcellulose (CMC)); 100 % of control (dose: 192.0 mg/kg/injection, schedule: Q01DX001 (ip), vehicle: other); 98 % of control (dose: 200.0 mg/kg/injection, schedule: Q01DX004 (im), vehicle: olive oil, sesame oil, peanut oil); 97 % of control (dose: 200.0 mg/kg/injection, schedule: Q01DX Z (oral), vehicle: carboxymethylcellulose (CMC)); 227 % of control (dose: 200.0 mg/kg/injection, schedule: Q01DX Z (sc), vehicle: carboxymethylcellulose (CMC)). Besides, the T/C by setting is: (dose: 240.0 mg/kg/injection, schedule: Q01DX Z (ip), vehicle: methylcellulose (MC)) 210 % of control; (dose: 250.0 mg/kg/injection, schedule: Q## X010 (oral), vehicle: saline) 101 % of control; (dose: 281.0 mg/kg/injection, schedule: Q01DX001 (ip), vehicle: carboxymethylcellulose (CMC)) 97 % of control; (dose: 281.0 mg/kg/injection, schedule: Q01DX001 (ip), vehicle: other) 103 % of control; (dose: 300.0 mg/kg/injection, schedule: Q03DX Z (ip), vehicle: carboxymethylcellulose (CMC)) 190 % of control; (dose: 350.0 mg/kg/injection, schedule: Q07DX Z (ip), vehicle: carboxymethylcellulose (CMC)) 278 % of control. Further, the T/C (dose: 400.0 mg/kg/injection, schedule: Q01DX Z (oral), vehicle: carboxymethylcellulose (CMC)) is 104 % of control; the T/C (dose: 422.0 mg/kg/injection, schedule: Q01DX001 (ip), vehicle: carboxymethylcellulose (CMC)) is 95 % of control; the T/C (dose: 422.0 mg/kg/injection, schedule: Q01DX001 (ip), vehicle: other) was 106 % of control; the T/C (dose: 500.0 mg/kg/injection, schedule: Q## X010 (oral), vehicle: saline) is 104 % of control; the T/C (dose: 640.0 mg/kg/injection, schedule: Q01DX001 (ip), vehicle: carboxymethylcellulose (CMC)) is 104 % of control; the T/C (dose: 640.0 mg/kg/injection, schedule: Q01DX001 (ip), vehicle: other) was 104 % of control. The T/C is 185 % of control (dose: 700.0 mg/kg/injection, schedule: Q07DX Z (ip), vehicle: carboxymethylcellulose (CMC)); 89 % of control (dose: 800.0 mg/kg/injection, schedule: Q01DX Z (oral), vehicle: carboxymethylcellulose (CMC)); 106 % of control and 120 % of control (dose: 960.0 mg/kg/injection, schedule: Q01DX001 (ip), vehicle: carboxymethylcellulose (CMC)); 116 % of control (dose: 1440.0 mg/kg/injection, schedule: Q01DX001 (ip), vehicle: carboxymethylcellulose (CMC)); 120 % of control (dose: 1440.0 mg/kg/injection, schedule: Q01DX001 (ip), vehicle: other); 121 % of control (dose: 2160.0 mg/kg/injection, schedule: Q01DX001 (ip), vehicle: carboxymethylcellulose (CMC)). The T/C (dose: 3240.0 mg/kg/injection, schedule: Q01DX001 (ip), vehicle: carboxymethylcellulose (CMC)) was 123 % of control and the T/C (dose: 3240.0 mg/kg/injection, schedule: Q01DX001 (ip), vehicle: other) is 191 % of control.

In the case of `CC(=O)/C(=C\N(C)C)C(=O)Nc1ccccn1`, the T/C was 98 % of control (dose: 100.0 mg/kg/injection, schedule: Q01DX001 (ip), vehicle: saline with Tween-80); 101 % of control (dose: 200.0 mg/kg/injection, schedule: Q01DX001 (ip), vehicle: saline with Tween-80); 93 % of control (dose: 400.0 mg/kg/injection, schedule: Q01DX001 (ip), vehicle: saline with Tween-80).

As for `ClCC[n+]1ccc(-c2cc[n+](CCCl)cc2)cc1`, the T/C was 110 % of control (dose: 156.0 micrograms/kg/injection, schedule: Q01DX Z (ip), vehicle: saline); 100 % of control (dose: 313.0 micrograms/kg/injection, schedule: Q01DX Z (ip), vehicle: saline); 98 % of control (dose: 625.0 micrograms/kg/injection, schedule: Q01DX Z (ip), vehicle: saline); 98 % of control (dose: 1250.0 micrograms/kg/injection, schedule: Q01DX Z (ip), vehicle: saline).

As for `CCC(=O)OC/C=C/c1ccccc1`, the T/C runs as follows: (dose: 100.0 mg/kg/injection, schedule: Q01DX009 (ip), vehicle: saline) 95 % of control; (dose: 100.0 mg/kg/injection, schedule: Q04DX003 (ip), vehicle: alcohol) 100 % of control; (dose: 200.0 mg/kg/injection, schedule: Q01DX009 (ip), vehicle: saline) 102 % of control; (dose: 200.0 mg/kg/injection, schedule: Q04DX003 (ip), vehicle: alcohol) 98 % of control; (dose: 400.0 mg/kg/injection, schedule: Q01DX009 (ip), vehicle: saline) 95 % of control; (dose: 400.0 mg/kg/injection, schedule: Q04DX003 (ip), vehicle: alcohol) 94 % of control.
